Test results taken from patent US10112918B2, “15-oxospiramilactone derivatives, preparation method and uses thereof” (Kunming Institute of Botany, The Chinese Academy of Sciences, priority 2013, dated 2018).
Like-named read-outs stand apart in the source and are kept apart here. One block for each compound: values may come before it.

Experiments:
Type in all cases: cell-based
[1] = system: SW-480 (human colon cancer cells); test: MTT inhibition of tumor cell growth, SW-480
Protocol: (§1) 1. Inoculating cells: the culture medium DMEM or RMPI1640 containing 10% fetal bovine serum was used to prepare a single cell suspension, and the cell suspension was inoculated to a 96-well plate at 5000-10000 cells per well (100 μl for each well); Adherent cells were inoculated and cultured for 12 h in advance. HL-60 (human promyelocytic leukemia cells), SMMC-7721 (human hepatoma cells), A-549 (Human lung adenocarcinoma cells), MCF-7 (human breast cancer cells), SW-480 (human colon cancer cells) were purchased from the Cell Bank of the Chinese Academy of Sciences, Shanghai.
(§2) 2. The solution of the compound to be tested (40 μM for primary screening; 5 concentrations were set for gradient re-screening for the compounds which achieve about 50% inhibition of tumor cell growth at 40 μM) was added, the final volume of each well was 200 μl, and triplicate wells were set for each test.
(§3) 3. Coloration: After culturing at 37° C. for 48 h, MTT solution (20 μl) was added to each well. After incubation for another 4 h, the culture was stopped. The supernatant in each well was pipetted and discarded, and 200 μl SDS solution (10%) was added to each well. Incubation was performed overnight (at 37° C.), to completely dissolve the crystal.
(§4) 4. Colorimetric assay: ELISA Reader (Bio-Rad 680) was used to obtain the light absorption for each well at a wavelength of 595 nm, the results were recorded. A cell growth curve was plotted with the concentration as abscissa and the cell survival percentage as ordinate. The two-point method (Reed and Muench method) was used to calculate the IC50 of the compound.

[2] = system: SMMC-7721 (human hepatoma cells); test: MTT inhibition of tumor cell growth, SMMC-7721
Protocol: as §1, §2, §3, §4

[3] = system: MCF-7 (human breast cancer cells); test: MTT inhibition of tumor cell growth, MCF-7
Protocol: as §1, §2, §3, §4

[4] = system: HL-60 (human promyelocytic leukemia cells); test: MTT inhibition of tumor cell growth, HL-60
Protocol: as §1, §2, §3, §4

[5] = system: A-549 (Human lung adenocarcinoma cells); test: MTT inhibition of tumor cell growth, A-549
Protocol: as §1, §2, §3, §4

[6] = Homo sapiens, SW480, 48 h, Table 6, 7-carbonyl derivatives, read-out: IC50 SW-480, 7-carbonyl derivatives
[7] = Homo sapiens, SW480, 48 h, Table 6, 7-hydroxyl derivatives and controls, read-out: IC50 SW-480, 7-hydroxyl derivatives
[8] = Homo sapiens, SW480, 48 h, Table 6, double Michael reaction acceptor derivatives, read-out: IC50 SW-480, derivatives having double Michael reaction acceptor
[9] = Homo sapiens, SMMC-7721, 48 h, Table 7 (first), alkaloid derivatives
[10] = Homo sapiens, MCF7, 48 h, Table 7 (first), alkaloid derivatives
[11] = Homo sapiens, HL-60, 48 h, Table 7 (first), alkaloid derivatives
[12] = Homo sapiens, SW480, 48 h, Table 7 (first), alkaloid derivatives, read-out: IC50 SW-480
[13] = Homo sapiens, A549, 48 h, Table 7 (first), alkaloid derivatives
[14] = Table 1, 7-hydroxy derivatives of S-3, 48 h
[15] = Table 2, derivatives having potential Michael reaction acceptor, 48 h
[16] = Table 3, single Michael reaction acceptor, modified lactonic ring, 48 h
[17] = Table 4, derivatives obtained by reduction of the lactonic ring, 48 h
[18] = Table 5, derivatives having double Michael reaction acceptor, 48 h
[19] = Table 7 (first), alkaloid derivatives, 48 h

SMILES: C=C1C(=O)C23CC[C@H]1CC2[C@@]12CCC[C@@](C)(COS(=O)OC1)C2CC3=O (stereo partly drawn) [Compound 42]
IC50 [1, 6]: 1.83 µM

SMILES: C=C1C(=O)C23CC[C@H]1CC2[C@]1(COC(=O)c2cccs2)CCC[C@@](C)(COC(=O)c2cccs2)C1C[C@H]3O (stereo partly drawn) [Compound 63]
IC50 [1, 7]: 2.97 µM

SMILES: C=C1C(=O)C23CC[C@H]1CC2[C@]1(COC(C)=O)CCC[C@@](C)(COC(=O)c2cccs2)C1C[C@H]3O (stereo partly drawn) [Compound 70]
IC50 [1, 7]: 1.69 µM

SMILES: C=C1C(=O)[C@]23CC[C@H]1CC2[C@@]12CCC[C@@]4(C)CN(CCO)[C@@H]1O[C@@H]3CC42 (stereo partly drawn) [Compound 82]
IC50 ([2]; Homo sapiens, SMMC-7721, Table 7 (first), alkaloid derivatives, 48 h): 23.6 µM | IC50 ([3]; Homo sapiens, MCF7, Table 7 (first), alkaloid derivatives, 48 h): 10.3 µM | IC50 ([4]; Homo sapiens, HL-60, Table 7 (first), alkaloid derivatives, 48 h): 19.3 µM | IC50 ([1]; Homo sapiens, SW480, Table 7 (first), alkaloid derivatives, 48 h, read-out: IC50 SW-480): 14 µM | IC50 ([5]; Homo sapiens, A549, Table 7 (first), alkaloid derivatives, 48 h): 18.6 µM

SMILES: C=C1C(=O)[C@@]23CC[C@@H](CC2[C@@]24CCC[C@@](C)(CN(CCO[Si](C)(C)C(C)(C)C)C2)C14)C(=C)C3=O (stereo partly drawn) [Compound 92]
IC50 [2, 9]: 2.63 µM | IC50 [3, 10]: 2.9 µM | IC50 [4, 11]: 1.39 µM | IC50 [1, 12]: 2.78 µM | IC50 [5, 13]: 1.55 µM

SMILES: CC(=O)O[C@H]1C(=O)[C@@]2(C)[C@H]([C@H](OC(=O)c3ccccc3)[C@]3(O)C[C@H](OC(=O)[C@H](O)[C@@H](NC(=O)c4ccccc4)c4ccccc4)C(C)=C1C3(C)C)[C@]1(OC(C)=O)CO[C@@H]1C[C@@H]2O [TAXOL, reference compound]
IC50 ([2]; Homo sapiens, SMMC-7721, 48 h, Table 1, 7-hydroxy derivatives of S-3): < 0.008 µM | IC50 ([2]; Homo sapiens, SMMC-7721, 48 h, Table 2, derivatives having potential Michael reaction acceptor): < 0.008 µM | IC50 ([2]; Homo sapiens, SMMC-7721, 48 h, Table 3, single Michael reaction acceptor, modified lactonic ring): < 0.008 µM | IC50 ([2]; Homo sapiens, SMMC-7721, 48 h, Table 4, derivatives obtained by reduction of the lactonic ring): < 0.008 µM | IC50 ([2]; Homo sapiens, SMMC-7721, 48 h, Table 5, derivatives having double Michael reaction acceptor): < 0.008 µM | IC50 [2, 9]: < 0.008 µM | IC50 ([3]; Homo sapiens, MCF7, 48 h, Table 1, 7-hydroxy derivatives of S-3): < 0.008 µM | IC50 ([3]; Homo sapiens, MCF7, 48 h, Table 2, derivatives having potential Michael reaction acceptor): < 0.008 µM | IC50 ([3]; Homo sapiens, MCF7, 48 h, Table 3, single Michael reaction acceptor, modified lactonic ring): < 0.008 µM | IC50 ([3]; Homo sapiens, MCF7, 48 h, Table 4, derivatives obtained by reduction of the lactonic ring): < 0.008 µM | IC50 ([3]; Homo sapiens, MCF7, 48 h, Table 5, derivatives having double Michael reaction acceptor): < 0.008 µM | IC50 [3, 10]: < 0.008 µM | IC50 ([4]; Homo sapiens, HL-60, 48 h, Table 1, 7-hydroxy derivatives of S-3): < 0.008 µM | IC50 ([4]; Homo sapiens, HL-60, 48 h, Table 2, derivatives having potential Michael reaction acceptor): < 0.008 µM | IC50 ([4]; Homo sapiens, HL-60, 48 h, Table 3, single Michael reaction acceptor, modified lactonic ring): < 0.008 µM | IC50 ([4]; Homo sapiens, HL-60, 48 h, Table 4, derivatives obtained by reduction of the lactonic ring): < 0.008 µM | IC50 ([4]; Homo sapiens, HL-60, 48 h, Table 5, derivatives having double Michael reaction acceptor): < 0.008 µM | IC50 [4, 11]: < 0.008 µM | IC50 ([1]; Homo sapiens, SW480, 48 h, Table 1, 7-hydroxy derivatives of S-3, read-out: IC50 SW-480): < 0.008 µM | IC50 ([1]; Homo sapiens, SW480, 48 h, Table 2, derivatives having potential Michael reaction acceptor, read-out: IC50 SW-480): < 0.008 µM | IC50 ([1]; Homo sapiens, SW480, 48 h, Table 3, single Michael reaction acceptor, modified lactonic ring, read-out: IC50 SW-480): < 0.008 µM | IC50 ([1]; Homo sapiens, SW480, 48 h, Table 4, derivatives obtained by reduction of the lactonic ring, read-out: IC50 SW-480): < 0.008 µM | IC50 ([1]; Homo sapiens, SW480, 48 h, Table 5, derivatives having double Michael reaction acceptor, read-out: IC50 SW-480): < 0.008 µM | IC50 [1, 7]: < 0.008 µM | IC50 [1, 12]: < 0.008 µM | IC50 ([5]; Homo sapiens, A549, 48 h, Table 1, 7-hydroxy derivatives of S-3): < 0.008 µM | IC50 ([5]; Homo sapiens, A549, 48 h, Table 2, derivatives having potential Michael reaction acceptor): < 0.008 µM | IC50 ([5]; Homo sapiens, A549, 48 h, Table 3, single Michael reaction acceptor, modified lactonic ring): < 0.008 µM | IC50 ([5]; Homo sapiens, A549, 48 h, Table 4, derivatives obtained by reduction of the lactonic ring): < 0.008 µM | IC50 ([5]; Homo sapiens, A549, 48 h, Table 5, derivatives having double Michael reaction acceptor): < 0.008 µM | IC50 [5, 13]: < 0.008 µM

SMILES: [NH2][Pt]([NH2])([Cl])[Cl] [cis-DDP, reference compound]
IC50 [2, 14]: 8.86 µM | IC50 [2, 15]: 8.86 µM | IC50 [2, 16]: 8.86 µM | IC50 [2, 17]: 8.86 µM | IC50 [2, 18]: 8.86 µM | IC50 [2, 19]: 10.2 µM | IC50 [3, 14]: 15.9 µM | IC50 [3, 15]: 15.9 µM | IC50 [3, 16]: 15.9 µM | IC50 [3, 17]: 15.9 µM | IC50 [3, 18]: 15.9 µM | IC50 [3, 19]: 17.5 µM | IC50 [4, 14]: 1.81 µM | IC50 [4, 15]: 1.81 µM | IC50 [4, 16]: 1.81 µM | IC50 [4, 17]: 1.81 µM | IC50 [4, 18]: 1.81 µM | IC50 [4, 19]: 3.08 µM | IC50 ([1]; Table 1, 7-hydroxy derivatives of S-3, 48 h, read-out: IC50 SW-480): 16.6 µM | IC50 ([1]; Table 2, derivatives having potential Michael reaction acceptor, 48 h, read-out: IC50 SW-480): 16.6 µM | IC50 ([1]; Table 3, single Michael reaction acceptor, modified lactonic ring, 48 h, read-out: IC50 SW-480): 16.6 µM | IC50 ([1]; Table 4, derivatives obtained by reduction of the lactonic ring, 48 h, read-out: IC50 SW-480): 16.6 µM | IC50 ([1]; Table 5, derivatives having double Michael reaction acceptor, 48 h, read-out: IC50 SW-480): 16.6 µM | IC50 ([1]; Table 6, 7-hydroxyl derivatives and controls, 48 h, read-out: IC50 SW-480, 7-hydroxyl derivatives): 11.1 µM | IC50 ([1]; Table 7 (first), alkaloid derivatives, 48 h, read-out: IC50 SW-480): 12 µM | IC50 [5, 14]: 11.7 µM | IC50 [5, 15]: 11.7 µM | IC50 [5, 16]: 11.7 µM | IC50 [5, 17]: 11.7 µM | IC50 [5, 18]: 11.7 µM | IC50 [5, 19]: 9.08 µM

Next, values leading:

IC50 [1, 7]: 0.81 µM
SMILES: C=C1C(=O)C23CC[C@H]1CC2[C@]1(COC(=O)CC)CCC[C@@](C)(COC(=O)CC)C1C[C@H]3O (stereo partly drawn) [Compound 72c]

IC50 [1, 7]: 0.52 µM
SMILES: C=C1C(=O)C23CC[C@H]1CC2[C@]1(COC(=O)c2ccccc2)CCC[C@@](C)(COC(=O)c2ccccc2)C1C[C@H]3O (stereo partly drawn) [Compound 72d]

IC50 [1, 6]: 0.69 µM
SMILES: C=C1C(=O)C23CC[C@H]1CC2[C@]1(COC(=O)CC)CCC[C@@](C)(COC(=O)CC)C1CC3=O (stereo partly drawn) [Compound 73c]

IC50 [1, 6]: 0.62 µM
SMILES: C=C1C(=O)C23CC[C@H]1CC2[C@]1(COC(=O)c2ccccc2)CCC[C@@](C)(COC(=O)c2ccccc2)C1CC3=O (stereo partly drawn) [Compound 73d]

IC50 [1, 8]: 0.33 µM
SMILES: C=C1C(=O)C23CC[C@@H](CC2[C@]2(COC(=O)CC)CCC[C@@](C)(COC(=O)CC)C12)C(=C)C3=O (stereo partly drawn) [Compound 74c]

IC50 [1, 8]: 0.15 µM
SMILES: C=C1C(=O)C23CC[C@@H](CC2[C@]2(COC(=O)c4ccccc4)CCC[C@@](C)(COC(=O)c4ccccc4)C12)C(=C)C3=O (stereo partly drawn) [Compound 74d]
